The target of one data set is T1, filamin-A (FLNA) (Homo sapiens, UniProt P21333).
T1 construct: in a membrane preparation from A7 cells or SK-N-MC cells; endogenous in cells; host or cells: A7 cells or SK-N-MC cells (membrane preparation)
Conditions: higher affinity binding site of the two sites; membrane preparation from A7 or SK-N-MC cells; cited from earlier work.

The nature of data set [1]: pKa analysis, potentiometric titration. The class given is physicochemical. Conditions: 22° C., ISA water (ionic strength 0.15, KCl). How it is done:
The Compound titration was performed at 22° C. in ISA water. The weighed amount of TC (2.40 mg) was placed into a titration vial. ISA water (15 mL) was delivered automatically to the vial. The pH value of the solution was adjusted to 3 by adding 0.5 M HCl automatically. The titration with 0.5 M KOH was performed automatically until a pH value of 11.5 was reached. One additional mL of ISA water was added to the titration vial to perform the second titration and third titration, per titration respectively. The datasets for the three titrations were combined in the Refinement Pro program to create a Multiset for pKa calculation.
First, the pKa measurements and calculations for Compound C0105 were performed with the presumption that there were two basic ionizable groups. […] Then the pKa calculations for the Compound were performed with the presumption that there was one basic ionizable group.

Each structure is given as a SMILES string.

This is an account of results in patent US11370791B2, “Solid polymorphs of a FLNA-binding compound and its hydrochloride salts” (Pain Therapeutics, Inc., priority 2019, dated 2022).

T1 sequence (P21333 whole entry): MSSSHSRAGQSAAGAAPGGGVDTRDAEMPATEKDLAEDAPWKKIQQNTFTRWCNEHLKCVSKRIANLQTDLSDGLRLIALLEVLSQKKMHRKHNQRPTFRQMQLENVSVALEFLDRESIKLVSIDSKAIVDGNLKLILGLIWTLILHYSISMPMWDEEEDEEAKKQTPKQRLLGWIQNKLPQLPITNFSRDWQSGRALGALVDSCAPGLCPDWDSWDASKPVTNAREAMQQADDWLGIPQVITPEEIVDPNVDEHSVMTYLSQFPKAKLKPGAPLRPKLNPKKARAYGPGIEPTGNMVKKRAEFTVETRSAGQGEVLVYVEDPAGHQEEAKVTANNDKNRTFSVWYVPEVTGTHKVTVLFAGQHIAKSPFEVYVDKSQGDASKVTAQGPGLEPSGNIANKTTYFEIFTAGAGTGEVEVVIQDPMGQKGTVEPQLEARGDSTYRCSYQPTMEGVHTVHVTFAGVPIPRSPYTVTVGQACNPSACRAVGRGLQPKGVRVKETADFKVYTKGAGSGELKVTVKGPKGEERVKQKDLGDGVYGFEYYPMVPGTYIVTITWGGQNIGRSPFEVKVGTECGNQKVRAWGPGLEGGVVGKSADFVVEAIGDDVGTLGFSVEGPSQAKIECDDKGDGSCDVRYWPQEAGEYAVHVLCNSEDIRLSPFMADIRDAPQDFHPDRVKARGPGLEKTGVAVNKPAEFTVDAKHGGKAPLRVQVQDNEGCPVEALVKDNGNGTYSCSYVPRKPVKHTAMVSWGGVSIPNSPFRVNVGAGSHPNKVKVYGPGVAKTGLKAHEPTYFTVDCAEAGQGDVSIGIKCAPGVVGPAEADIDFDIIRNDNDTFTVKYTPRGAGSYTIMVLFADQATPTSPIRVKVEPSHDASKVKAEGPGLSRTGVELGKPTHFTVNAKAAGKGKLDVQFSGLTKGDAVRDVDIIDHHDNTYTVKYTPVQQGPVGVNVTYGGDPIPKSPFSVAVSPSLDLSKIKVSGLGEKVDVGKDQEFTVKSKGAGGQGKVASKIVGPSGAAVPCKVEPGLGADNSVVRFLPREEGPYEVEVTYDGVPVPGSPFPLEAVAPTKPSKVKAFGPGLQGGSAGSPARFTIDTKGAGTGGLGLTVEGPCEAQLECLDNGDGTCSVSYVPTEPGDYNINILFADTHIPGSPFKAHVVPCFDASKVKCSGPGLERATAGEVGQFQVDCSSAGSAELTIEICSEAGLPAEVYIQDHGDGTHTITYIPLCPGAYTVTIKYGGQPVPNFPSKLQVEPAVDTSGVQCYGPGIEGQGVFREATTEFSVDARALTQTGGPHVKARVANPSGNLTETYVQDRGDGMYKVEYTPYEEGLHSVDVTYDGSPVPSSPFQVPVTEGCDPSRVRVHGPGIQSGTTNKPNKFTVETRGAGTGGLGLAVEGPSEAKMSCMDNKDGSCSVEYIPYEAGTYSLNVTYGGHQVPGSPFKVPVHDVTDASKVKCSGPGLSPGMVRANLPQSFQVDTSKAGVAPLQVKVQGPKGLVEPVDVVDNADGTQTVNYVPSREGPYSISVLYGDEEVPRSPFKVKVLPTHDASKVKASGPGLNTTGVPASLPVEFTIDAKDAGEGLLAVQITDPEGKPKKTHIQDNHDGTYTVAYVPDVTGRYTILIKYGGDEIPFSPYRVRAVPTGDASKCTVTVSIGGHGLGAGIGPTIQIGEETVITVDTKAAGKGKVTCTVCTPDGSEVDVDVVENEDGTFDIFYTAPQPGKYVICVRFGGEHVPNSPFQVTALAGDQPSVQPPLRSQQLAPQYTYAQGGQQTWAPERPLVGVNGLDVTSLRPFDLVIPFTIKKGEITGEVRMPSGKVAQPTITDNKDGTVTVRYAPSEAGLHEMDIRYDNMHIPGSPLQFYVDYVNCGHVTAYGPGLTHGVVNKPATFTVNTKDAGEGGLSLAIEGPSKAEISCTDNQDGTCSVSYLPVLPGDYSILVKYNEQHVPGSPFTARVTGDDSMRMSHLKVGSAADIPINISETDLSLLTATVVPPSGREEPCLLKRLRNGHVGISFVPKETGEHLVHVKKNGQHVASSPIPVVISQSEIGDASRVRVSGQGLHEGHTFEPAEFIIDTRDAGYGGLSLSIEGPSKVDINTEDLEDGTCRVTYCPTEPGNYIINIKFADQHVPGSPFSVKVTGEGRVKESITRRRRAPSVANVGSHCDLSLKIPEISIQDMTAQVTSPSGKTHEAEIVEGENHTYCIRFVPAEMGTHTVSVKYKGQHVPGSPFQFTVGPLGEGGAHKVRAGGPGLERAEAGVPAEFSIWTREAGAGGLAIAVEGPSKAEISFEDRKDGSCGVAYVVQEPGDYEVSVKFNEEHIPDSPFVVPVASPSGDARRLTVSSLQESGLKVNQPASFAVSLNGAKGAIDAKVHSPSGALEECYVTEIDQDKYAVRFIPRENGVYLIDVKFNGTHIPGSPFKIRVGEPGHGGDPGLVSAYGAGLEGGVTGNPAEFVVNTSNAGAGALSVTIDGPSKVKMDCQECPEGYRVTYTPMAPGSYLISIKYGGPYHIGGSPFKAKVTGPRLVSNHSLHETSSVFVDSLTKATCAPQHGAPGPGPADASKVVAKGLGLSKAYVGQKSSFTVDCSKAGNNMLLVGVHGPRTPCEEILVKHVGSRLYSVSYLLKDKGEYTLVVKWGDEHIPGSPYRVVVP

As usually defined, the pKa is the pH at which an ionisable group is half protonated. A lower pKa goes with a stronger acid or weaker base. Regarding `CN1CCC2(CC1)NCC(=O)N2Cc1ccccc1` [Compound C0105, 1-benzyl-8-methyl-1,4,8-triazaspiro[4.5]-decan-2-one], the “EC50, inhibition of [3H]NLX binding” value on filamin-A (FLNA) is on record as 10^−12 to 10^−13 M. The pKa in data set [1] (higher value) was found to be 8; in data set [1] (lower value), 1.5.
